Assay type in all cases: in vivo, human
The subject of data set [1] is estradiol and testosterone levels. Nature of the data set: Circulating estradiol and testosterone in healthy subjects, 14 days. The note with it: up to 14 days, 100-300 mg BID or 400 mg QD. The method, then: Effects on circulating levels of estradiol and testosterone in male and female healthy subjects receiving Compound 1 or placebo for a treatment period of 14 days were evaluated. Compound 1 was administered twice daily (BID) at dose levels of 100 mg, 200 mg, and 300 mg, and once daily (QD) at a dose level of 400 mg. Each dosing cohort was comprised of 9 subjects treated with Compound 1 and 3 subjects treated with placebo. Testosterone and estradiol levels were assessed prior to dosing (baseline), and then on days 8, 14 and 17.

Data set [2] is described as follows: Phase 1: safety (adverse events) in SCD patients. How it is done:
In the SD cohort, 7 pts (2 males, 5 females, all HbSS) received 700 mg Compound 1 (n=5) or placebo (n=2).
All SCD patients who received a single 700 mg dose of Compound 1 or placebo were monitored for adverse events for 7 days. The incidence of treatment emergent adverse events (TEAEs) in SCD patients receiving Compound 1 (700 mg) or placebo are reported in Table 23. Six TEAEs were reported in 4 patients; all TEAEs were grade 1 and transient. Specifically, six TEAEs were reported in 4 of 7 (57%) patients, including 3 TEAEs (arthralgia, headache, palpitations) in 2 of 5 (40%) pts receiving Compound 1 and 3 TEAEs (back pain, myalgia, pruritis) in 2 of 2 (100%) pts receiving placebo; all TEAEs were grade 1 and transient. […] One possibly related TEAE (palpitations) occurred about 8 hours post dose. No other symptoms were observed, and the palpitations resolved in <1 minute. […] The single 700 mg dose of Compound 1 was considered tolerable, and the first multiple dose SCD cohort was initiated.
Based on data from the MAD1 (300 mg once daily for 14 days), Compound 1 is well-tolerated in patients with SCD. In all, eighteen TEAEs were reported in 7 of 9 patients in the MAD1 (300 mg once daily) cohort (N=9). These included (a) eight Grade 1 TEAEs, including 3 patients c/o headache, 1 each of nausea, constipation, somnolence, increased LDH and increased AST, of which two AEs considered to be possibly related to study treatment were reported by one patient each (1 AE of headache and 1 AE of nausea); (b) six Grade 2 TEAEs, including 3 uncomplicated sickle pain events (in 2 patients), 1 patient with N/V and 1 increased reticulocytes, of which no AEs were considered related to study treatment, all AEs of pain events were considered unrelated and consistent with each patient's SCD pain history, and all AEs were treated with patient's standard home pain medications (no SAE/no hospitalization); and (c) one Grade 4 TEAE of elevated creatine kinase, unrelated to study treatment. Non-treatment-related AEs were consistent with events experienced in this patient population. No treatment-related serious AEs were reported.

A further data set deals with ATP blood levels. Nature of the data set: Phase 1: blood ATP in SCD patients. The method, then: In this study, SAD/MAD cohorts are randomized (3 to 1) to receive Compound 1 or placebo (P). Compound 1 was evaluated first in 4 healthy SAD cohorts and 4 healthy MAD (14-day dosing period) cohorts. Based on the safety, and PK/PD profile from HS, Compound 1 is then evaluated in 1 SCD SAD cohort and 2 SCD MAD cohorts. Specifically, based on the safety and pharmacokinetic/pharmacodynamics (PK/PD) profile in healthy volunteer studies, Compound 1 is evaluated in patients (pts) with SCD, first in a single dose (SD or SAD) cohort and then in multiple-dose (MD or MAD) cohorts (14-day and 12-week). Safety assessments include AEs, vital signs, ECGs and laboratory parameters. PK/PD blood sampling was performed on Day 1 (SAD/MAD) and Day 14 (MAD) and up to 72 h after the last dose and at the end-of-study visit. PD parameters included 2,3-DPG, ATP, and p50 in all cohorts with additional PD studies (including oxygen scan) performed only in the SCD cohorts. PD parameters included 2,3-DPG, ATP, p50, RBC deformability with controlled deoxygenation and reoxygenation (Lorrca® oxygen scan) and varying osmolality (Lorrca® osmoscan)). To maintain study blind, pt identifiers were removed when needed.
The onset of the increase in ATP blood levels after a single 700 mg dose of Compound 1 was faster in SCD patients than in healthy volunteers, while the onset of the decrease in 2,3-DPG blood levels was slower.
The following procedures are employed for the analysis of ATP and 2,3-DPG in human whole blood K2EDTA using a protein precipitation extraction procedure and analysis by LC-MS/MS.
The following procedures are used for sample extraction prior to analysis via LC-MS/MS. 15.0 μL of the calibration standards, quality controls, matrix blanks, and samples are aliquoted into a 96-well plate. 50.0 μL of the internal standard spiking solution is added to all samples on the plate, with the exception of the matrix blank samples; 50.0 μL of water is added to the matrix blank samples. Subsequently, 150 μL of water is added to all samples on the plate. The plate is then covered and agitated by vortex at high speed for ten minutes, after which 750 μL of methanol is added to all samples on the plate. The plate is covered and agitated by vortex for approximately 1 minute. The plate is then centrifuged at approximately 3500 RPM at approximately 4° C. for five minutes. After centrifugation, a liquid handler is used to transfer 50 μL of each sample to a new 96-well plate, and 200 μL of acetonitrile is added to all samples on the plate. The newly prepared plate is covered and agitated by vortex for approximately 1 minute. The plate is then centrifuged at approximately 3500 RPM at approximately 4° C. for 2 minutes.

“Also recorded” adds a separate entry of the source.

For `O=C([C@H](CO)c1ccccc1)N1CC2=C(C1)CN(S(=O)(=O)c1cnc3c(c1)OCCO3)C2` (single isomer, unassigned) [Compound 1], the “testosterone and estradiol levels” value in data set [1] was “no effect on estradiol and testosterone levels; also recorded: No effect on testosterone or estradiol levels; also recorded: no statistically significant changes and no clinically meaningful trends”. Besides, the “Any TEAE, n (%)” value is 6 (86%) n (%) in data set [2] (SCD 300 mg × 14 days (n = 7)) and 2 (40) n (%) in data set [2] (SCD single 700 mg (N = 5)). Moreover, the “Any serious adverse event (SAE), n (%)” value in data set [2] (SCD 300 mg × 14 days (n = 7)) is 0 n (%). Further, the entries for the “Related to study drug, n (%)” value in data set [2] (SCD 300 mg × 14 days (n = 7)) and in data set [2] (SCD single 700 mg (N = 5)) were 2 (29%) n (%) and 1 (20) n (%), respectively. Further, in data set [2] (SCD 400 mg QD, 84 days (12 weeks), open-label), the tolerability entry is “well-tolerated”. Also, the “serious adverse events / TEAEs leading to withdrawal” value in data set [2] (SCD SD cohort) was “No serious adverse events (SAEs) or TEAEs leading to pt withdrawal were reported”. The “mean percentage change in ATP blood levels” value with ATP blood levels (SCD 300 mg QD, Day 1, 0 h after first daily dose) turned out to be 0%; in the data set on ATP blood levels (SCD 300 mg QD, Day 1, 24 h after first daily dose), 14%; with ATP blood levels (SCD 300 mg QD, Day 14, 0 h after first daily dose), 47%; with ATP blood levels (SCD 300 mg QD, Day 14, 6 h after first daily dose), 44%; in the data set with ATP blood levels (SCD 300 mg QD, Day 14, 24 h after first daily dose), 45%; in the data set on ATP blood levels (SCD 300 mg QD, Day 14, 48 h after first daily dose), 35%. For the same compound, the “mean percentage change in ATP blood levels” value was determined as 0% with ATP blood levels (SCD single 700 mg, 0 h after dose); 14% with ATP blood levels (SCD single 700 mg, 6 h after dose); 30% in the data set on ATP blood levels (SCD single 700 mg, 24 h after dose); 30% in the data set on ATP blood levels (SCD single 700 mg, 48 h after dose); 32% in the data set on ATP blood levels (SCD single 700 mg, 72 h after dose). For the same compound, in the data set on ATP blood levels (SCD single 700 mg, FIG. 54A), the “lag of maximum increase in blood ATP behind maximum plasma concentration” value is listed as “at least 24 hours”. The “increase in ATP blood concentrations” value with ATP blood levels (SCD, 24 hours after single 700-mg dose, FIG. 46A) is given as 30%.

The values above are taken from US12128035B2, “Activating pyruvate kinase R” (Novo Nordisk Health Care AG, priority 2021, dated 2024).
